# Measured values from article PMC4684082 (Journal of the American Chemical Society, 2015).
# Where a chain is given by its changes, count along the chain named.
# Experiments:
# [1] = target: T1, wt hhIYD (iodotyrosine deiodinase from Haliscomenobacter hydrossis) (Haliscomenobacter hydrossis, UniProt F4KU78); experiment: UV-vis spectrum of enzyme-bound FMN, dithionite reduction; type: binding; settings: pH 6 MES, 500 mM NaCl, 10% glycerol; anaerobic
# T1 sequence (F4KU78 1-222): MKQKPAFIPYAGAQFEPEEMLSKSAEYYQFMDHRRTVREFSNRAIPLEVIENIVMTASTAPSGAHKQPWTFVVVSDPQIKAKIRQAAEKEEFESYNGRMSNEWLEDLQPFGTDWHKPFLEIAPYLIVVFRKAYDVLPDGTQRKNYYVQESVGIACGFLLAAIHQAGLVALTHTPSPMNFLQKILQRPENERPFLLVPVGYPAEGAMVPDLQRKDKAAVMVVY
# [2] = target: T2, wt hhIYD (iodotyrosine deiodinase from Haliscomenobacter hydrossis) (Haliscomenobacter hydrossis, UniProt F4KU78, T173A); experiment: steady-state reductive deiodination; type: biochemical; settings: read-out: I2-Tyr / KM; dithionite as reductant
# T2 sequence (F4KU78 1-222 T173A): T1 sequence (F4KU78 1-222) with T173A
# [3] = target: T1, wt hhIYD (iodotyrosine deiodinase from Haliscomenobacter hydrossis); experiment: quenching of active-site FMNox fluorescence; type: binding
# [4] = target: T2, wt hhIYD (iodotyrosine deiodinase from Haliscomenobacter hydrossis); experiment: quenching of active-site FMNox fluorescence; type: binding
SMILES,"UV-vis spectrum of enzyme-bound FMN, dithionite reduction [1]",Km [2] [µM],Kd [3] [nM],Kd [4] [nM]
Cc1cc2nc3c(=O)[nH]c(=O)nc-3n(C[C@H](O)[C@H](O)[C@H](O)COP(=O)(O)O)c2cc1C [FMN],Stoichiometric addition of dithionite to wt hhIYD under anaerobic conditions reduced its FMNox to FMNhq,–,–,–
N[C@@H](Cc1cc(I)c(O)c(I)c1)C(=O)O [I2-Tyr],–,35 ± 8,2900 ± 100,2600 ± 200
